Test results published in patent US20180318834A1, “INTEGRATION OF ELECTROCHECMICAL PH MODULATION WITH LAB ON A CHIP TECHNOLOGIES” (Robert Bosch GmbH, priority 2015, published 2018).

Assays:
[1] = Electrochemical generation of H+ or OH- ions at indium tin oxide electrode surfaces (cyclic voltammetry); assay type: physicochemical
Source text: FIG. 7B: Cyclic voltammetric study of the oxidation of Ascorbic acid test in ITO electrodes. Current increase around 0.25V indicates the start of oxidation at ITO electrodes.
Electrode material used: The electrode material was indium tin oxide. This is a semiconducting electrode surface with very large potential window in an aqueous solution.
Oxidation of ascorbic acid at the electrode surfaces produced H^+ ions and changed the electrode surface pH to a more acidic state:
The electrode potential at which it oxidizes was less than 0.5V for Indium tin oxide material vs Ag/AgCl reference electrode (as shown in FIG. 7). This potential was less than the voltages needed for the oxygen evolution reaction in aqueous solution. The ascorbic acid also acted as a sacrificial species to prevent electrochemical degradation of the surface chemistry.
Reduction of benzoquinone (C6H4O2) into Hydroquinone (C6H6O2) can produce OH^− ions at −0.1V: […]

[2] = target: Green Fluorescent Protein (GFP) (Aequorea victoria, UniProt P42212); assay: Effect of benzoquinone substitution on protein (GFP) stability, by fluorescence intensity; assay type: biochemical; settings: incubation 30 min in phosphate buffered saline, concentration of benzoquinones 0.5 mM
Source text: Para-benzoquinones and ortho-benzoquinones (compounds 2, 4, 6, and 9 in FIG. 31) are susceptible to nucleophilic attack at the double bond of the ring (positions 2, 3, 5 and 6 in structure 2 of FIG. 31, positions 3, 4, 5 and 6 in structure 4 of FIG. 31, and positions 2 and 3 in structure 6 of FIG. 31). Introducing substituents at some or all of those positions can mitigate the problem of nucleophilic attack. For example, 1,4-benzoquinone (structure 2 in FIG. 31, where R1, R2, R3 and R4 are H) undergoes Michael addition reaction with amino groups of proteins (Loomis et al., Phytochemistry, 5, 423, (1966) and U.S. Pat. No. 6,753,312 B2). […] Fluorescence intensity of Green Fluorescent Protein (GFP) was measured after incubation with three different benzoquinones in phosphate buffered saline for 30 min (concentration of benzoquinones was 0.5 mM). The difference in fluorescence intensity indicates the varied effect that the different substitutions in benzoquinones have on the stability of GFP. Fluorescence intensity of GFP is indicative of its structural integrity. Losses in fluorescence intensity usually indicate loss of its tertiary structure (protein denaturation) (Yin D. X., Zhu L., Schimke R. T. Anal. Biochem. 1996, 235:195-201).

electrode potential at which it oxidizes ([1]; Indium tin oxide material vs Ag/AgCl reference electrode) | start of oxidation (current increase) ([1]; cyclic voltammetric study at ITO electrodes) | SMILES | loss in GFP fluorescence intensity after incubation [2] [%] | potential of reduction into Hydroquinone producing OH- ions ([1]; electro-reduction at indium tin oxide electrode) [V]
less than 0.5 V | around 0.25 V | O=C1O[C@H]([C@@H](O)CO)C(O)=C1O [ascorbic acid] | – | –
– | – | O=C1C=CC(=O)C=C1 [unsubstituted benzoquinone, 1,4-benzoquinone] | 25 | −0.1
